According to US10046150B2, “Lysine delivery systems for blood coagulation” (Park City Bio, LLC, priority 2013, dated 2018):

Test system: nose bleed
Experiment: treatment of a nose bleed with a nose plug (tissue, gauze or absorbent body) carrying lysine powder
Assay type: in vivo
Experimental: As a control, regular tissue and regular gauze were used to treat a nose bleed by rolling or otherwise fashioning a nose plug from the materials, and no lysine was added. The tissues and gauze appear to absorb the blood, but the blood continues to flow. In some instances, the blood flow can be significant and require a large number of sequential tissues or gauze. Nose bleeds treated with tissues can last 10 minutes or more up to an hour or longer when the bleed is significant. In some instances a nose bleed can be from both nostrils and both nostrils have to be plugged with a nose plug.
The nose bleed often stops within 1 minute when the tissue includes lysine, compared a long period when only tissues are used. A significant bleed was stopped within 5 minutes when lysine was included in the gauze. […] Available lysine was present after the nose bleed was treated to stop blood flow. […] Accordingly, substantially less than 500 mg lysine (E.g., 5 mg) is needed to stop bleeding in a short time. The device including the tissue and the lysine powder is able to be withdrawn with the blood no longer flowing through the nose.
Additionally, there was still excess powder. The gauze was rolled up with the lysine powder at one end, and the lysine powder was inserted into the nose, then the gauze was released and allowed to expand and plug the nose.
FIG. 12—illustrate an embodiment of a method of making a blood coagulating device with a lysine reservoir. […] The gauze is not hemostatic (Walgreens Premium Rolled Gauze—for secure dressings and light absorption. The device is made by: forming an absorptive body to a size and shape of a sheet; placing lysine powder on a surface of the sheet, where the lysine may be anywhere, but shown to be placed along a center crease. Adhesive is used to stick the surface to itself when the substrate is folded at the center crease so that the folded body has the lysine at the fold. The additional adhesive is put on the surface that is showing, and the sheet is rolled into a cylindrical device. The device has the lysine in a multi-layered chamber with the lysine located at one end. […] The marked end of the controls is not inserted in the nose.

## NCCCC[C@H](N)C(=O)O [lysine]
Hemostat gauze (regenerated etherized and oxidized natural fiber cellulose) having about 250 mg lysine powder, slower bleed
  time until the nose bleed stopped: within a minute
Hemostat gauze having about 250 mg lysine powder, slower bleed
  time until the gauze could be removed: just over a minute
Nose bleed
  effect on blood flow / bleeding (in words): promotes clotting
Nose bleed, compared with control without lysine where stated
  blood absorbed by the device (in words): didn't absorb much blood
